Results: PMC9804871, “Effect of Opicapone on Levodopa Pharmacokinetics in Patients with Fluctuating Parkinson's Disease” (Movement Disorders, 2022)
Marks after values point to notes of the source that are not given here.

Assay: 12-hour levodopa plasma pharmacokinetics
Format: in vivo, human (patients with PD)
Conditions: for Levodopa AUCτ / Levodopa Cavg / Levodopa Cmax / Levodopa Cmin: mean; for Levodopa tmax: median; for Levodopa Cmax (over all intakes of the 12-hour pharmacokinetics; Cmax,max) / Levodopa Cmin (over all intakes, excluding first predose; Cmin,min): mean (%CV); for Levodopa Cmin,min, geometric mean (90% CI): N 11; for Levodopa Cmax,max, geometric mean (90% CI): N 12
Description: The study design is illustrated in Figure 1.
Pharmacokinetic evaluation occurred over 12 hours with sampling every 30 minutes, except for the last sample following each LD dose in the opicapone plus four LD intake regimen, which was sampled at 1 hour. The main pharmacokinetics parameters assessed included maximum observed plasma concentration (Cmax), time to achieve peak plasma levels (tmax), minimum observed plasma concentration (Cmin), plasma elimination half‐life (t1/2), area under the curve (AUC), and fluctuation index (FI; as an expression of peak‐to‐trough fluctuation, Cmax, and Cmin, relative to average concentration [Cavg]). The pharmacokinetics of the LD metabolite 3‐O‐methyldopa (3‐OMD) was also evaluated.
Descriptive statistics were used to summarize the pharmacokinetics parameters for LD and 3‐OMD for each of the three regimens. […] No formal comparison was performed between opicapone regimens.

[1] = five-intake LD/CD 500/125 mg vs five-intake LD/CD 400/100 mg plus opicapone 50 mg, first LD/CD intake
[2] = five-intake LD/CD 500/125 mg vs five-intake LD/CD 400/100 mg plus opicapone 50 mg, fourth LD/CD intake
[3] = five-intake LD/CD 500/125 mg vs five-intake LD/CD 400/100 mg plus opicapone 50 mg
[4] = five-intake LD/CD 500/125 mg vs five-intake LD/CD 400/100 mg plus opicapone 50 mg, second LD/CD intake
[5] = five-intake LD/CD 500/125 mg vs five-intake LD/CD 400/100 mg plus opicapone 50 mg, third LD/CD intake
[6] = five-intake LD/CD 500/125 mg vs four-intake LD/CD 400/100 mg plus opicapone 50 mg, first LD/CD intake
[7] = five-intake LD/CD 500/125 mg vs four-intake LD/CD 400/100 mg plus opicapone 50 mg, fourth LD/CD intake
[8] = five-intake LD/CD 500/125 mg vs four-intake LD/CD 400/100 mg plus opicapone 50 mg
[9] = five-intake LD/CD 500/125 mg vs four-intake LD/CD 400/100 mg plus opicapone 50 mg, second LD/CD intake
[10] = five-intake LD/CD 500/125 mg vs four-intake LD/CD 400/100 mg plus opicapone 50 mg, third LD/CD intake
[11] = five-intake levodopa/carbidopa 500/125 mg vs five-intake levodopa/carbidopa 400/100 mg plus opicapone 50 mg
[12] = five-intake levodopa/carbidopa 500/125 mg vs four-intake levodopa/carbidopa 400/100 mg plus opicapone 50 mg

levodopa/carbidopa [LD/CD]
Levodopa AUCτ [1]: 1788^b h · ng/mL
Levodopa Cavg [1]: 596^b ng/mL
Levodopa Cmax [1]: 1356 ng/mL
Levodopa Cmin [1]: 18.1 ng/mL
Levodopa tmax [1]: 0.5 h
Levodopa AUCτ [2]: 2871^d h · ng/mL
Levodopa Cavg [2]: 957^d ng/mL
Levodopa Cmax [2]: 1540 ng/mL
Levodopa Cmin [2]: 455 ng/mL
Levodopa tmax [2]: 1.5 h
Levodopa Cmax (over all intakes of the 12-hour pharmacokinetics; Cmax,max) [3]: 1999 (26.3) ng/mL
Levodopa Cmin (over all intakes, excluding first predose; Cmin,min) [3]: 267.0 (82.9) ng/mL
Levodopa AUCτ [4]: 2269^b h · ng/mL
Levodopa Cavg [4]: 756^b ng/mL
Levodopa Cmax [4]: 1466 ng/mL
Levodopa Cmin [4]: 283 ng/mL
Levodopa tmax [4]: 1.0 h
Levodopa AUCτ [5]: 2871^d h · ng/mL
Levodopa Cavg [5]: 957^d ng/mL
Levodopa Cmax [5]: 1530 ng/mL
Levodopa Cmin [5]: 365 ng/mL
Levodopa tmax [5]: 0.5 h
Levodopa AUCτ [6]: 2076 ng·h/mL
Levodopa Cavg [6]: 692 ng/mL
Levodopa Cmax [6]: 1393 ng/mL
Levodopa Cmin [6]: 18.6 ng/mL
Levodopa tmax [6]: 0.75 h
Levodopa AUCτ [7]: 3414^d h · ng/mL
Levodopa Cavg [7]: 1138^d ng/mL
Levodopa Cmax [7]: 1852 ng/mL
Levodopa Cmin [7]: 559 ng/mL
Levodopa tmax [7]: 1.5 h
Levodopa Cmax (over all intakes of the 12-hour pharmacokinetics; Cmax,max) [8]: 2130 (25.8) ng/mL
Levodopa Cmin (over all intakes, excluding first predose; Cmin,min) [8]: 264.5 (32.8) ng/mL
Levodopa AUCτ [9]: 2637^c h · ng/mL
Levodopa Cavg [9]: 879^c ng/mL
Levodopa Cmax [9]: 1751 ng/mL
Levodopa Cmin [9]: 266 ng/mL
Levodopa tmax [9]: 1.5 h
Levodopa AUCτ [10]: 2850^f h · ng/mL
Levodopa Cavg [10]: 950^f ng/mL
Levodopa Cmax [10]: 1310 ng/mL
Levodopa Cmin [10]: 403 ng/mL
Levodopa tmax [10]: 1.5 h
Levodopa Cmin,min, geometric mean (90% CI) [11]: 218.9 (156.1, 307.0) ng/mL
Levodopa Cmax,max, geometric mean (90% CI) [11]: 1931 (1667, 2237) ng/mL
Levodopa Cmin,min, geometric mean (90% CI) [12]: 252.2 (211.4, 301.0) ng/mL
Levodopa Cmax,max, geometric mean (90% CI) [12]: 2059 (1782, 2380) ng/mL
